# Like-named read-outs stand apart in the source and are kept apart here.
# Assays:
# [1] = tested on: FASN activity in HepG2 cells; assay: [3H] glucose and acetate incorporation into lipids in HepG2 cells; type: cell-based; settings: for EC50 / IC50: Homo sapiens
# Procedure: To specifically identify inhibitors of FASN targeting its nucleotide binding pockets Cibacron blue Sepharose was utilized. This medium has been used previously to purify NAD and NADP binding proteins from crude tissues extracts (Miyaguchi et al., 2011; Muratsubaki et al., 1994). FASN enriched extract from lactating pig mammary gland was bound to the resin and labeled with cysteine reactive fluorescein. […] Next, the molecules were tested for their ability to inhibit FASN activity in a HepG2 cell based assay that measured the incorporation of ^3H glucose into lipids (FIG. 1B and FIG. 9).
# Incorporation of radiolabeled glucose or acetate in total lipids was measured according to published methods (Haystead and Hardie, 1986). HepG2 cells (80% confluent in 12 wells plates) were starved overnight in MEM Alpha, the medium was then changed with DMEM medium containing 0.1 g/L glucose 10% FBS and 5 μM insulin and 1 μCi 3-[^3H] D-glucose or 1 μCi [^3H]-acetate in addition to different concentrations of each compound. After incubation for 1 hour at 37° C., 5% CO2, the cells were washed with ice cold PBS and detached by treating with 100 μl trypsin for 10 min then 1 ml of ice cold PBS was added. The cells suspension was then sonicated for 3 times in 30 seconds intervals and kept on ice. From each well 1 ml of cell lysate was added to a 4 ml scintillation vial and 2 ml of MicroScint-E was added. The vials were mixed thoroughly then centrifuged for 30 min at 3000 rpm and the ^3H radioactivity was measured by liquid scintillation counting.
# [2] = tested on: ATP binding proteins of BT474 cells lysate; assay: Elution of ATP Sepharose loaded with BT474 cells lysate; settings: 1, 2.5, 5 and 10 mM
# Procedure: FIGS. 13A-13D illustrate the characterization of purified FASN and Fasnall elution of ATP Sepharose. […] Lane 6 and 7 are 10 mM Staurosporine and 50 mM ATP, respectively, as positive controls.
# [3] = tested on: MCF7, MDA-MB-468, BT474 and SKBR3 cells; assay: Proliferation assay (Hoechst DNA content), aggressive breast cancer cell lines; type: cell-based; settings: MCF7, MDA-MB-468, BT474, SKBR3
# Procedure: MCF10A (5,000 cells/well), MCF7 (7,500 cells/well), MDA-MB-468 (5,000 cells/well), BT474 (7,500 cells/well), and SKBR3 (5,000 cells/well) were seeded in 96 well plates with 10% FBS 4 g/L glucose DMEM media except for MCF10A which was DMEM/F12 media. After 24 hours, cells were treated with different concentration of HS-106 or C75. Every 24 hours for five days, media from one of the plates was removed and plate was frozen at −80° C. After collecting all the time points, to each well 100 μl ddH2O was add and the plates were frozen again. Then 100 μI of Hoechst 33258 solution made in TNE buffer (1 μl from Hoechst stock (1 mg/ml in 1:4 DMSO:H20) in 1 ml of TNE (which contains 10 mM Tris, 2M NaCl and 1 mM Na2EDTA) and fluorescence was measured at Ex/Em: 355/460.
# HIV-1 = type: cell-based
# Procedure: (A) TZM-bl cells were transfected with pNL4-3 provirus plasmid for 48 h in the presence or absence of 10 μM Fasnall or C75 or DMSO (0.01%). Intracellular expression of HIV-1 proteins was monitored by HIVIG-western blot, and β-actin was used as loading control. (B) Supernatant associated virion production was monitored using a p24 ELISA. (C) 48 hours post-transfection, cell culture supernatants were removed and incubated with fresh TZM-bl (indicator) cells for an additional 48 hrs. Values expressed as the mean±standard deviation, and are representative of three independent experiments. p-values were generated with student's t-test. Molecular weight markers (kD) indicated in right margin.
# To test further the hypothesis that HIV-1 replication requires FASN activity during the late stages of viral replication, TZM-bl or SupT1 (data not shown) cells were transfected with a HIV-1 provirus (pNL43) in the presence or absence of Fasnall or C75. […] Thus, FASN inhibition reduces nascent HIV-1 virion production without reducing HIV-1 protein synthesis.
structure (smiles),measurement,setting,value
"Cc1sc2ncnc(NC3CCN(Cc4ccccc4)C3)c2c1C (racemic) [HS-106, N-(1-benzylpyrrolidin-3-yI)-5,6-dimethylthieno[2,3-d]pyrimidin-4-amine]",inhibition of tritiated acetate incorporation into lipids,"[1]; FIG. 2D, cell line not stated",inhibit the incorporation of tritiated acetate into lipids
same,"rank among the 13 molecules tested, 3H glucose incorporation into lipids",[1]; HepG2 cells,most potent inhibitor
same,EC50,"[1]; HepG2, read-out: EC50, blockade of acetate incorporation into total lipids",147 nM
same,EC50,"[1]; HepG2, read-out: EC50, blockade of glucose incorporation into total lipids",213 nM
same,IC50,"[1]; HepG2, read-out: IC50, incorporation of tritiated acetate into lipids",147 nM
same,IC50,"[1]; HepG2, read-out: IC50, incorporation of tritiated glucose into lipids",213 nM
same,elution of proteins from ATP Sepharose,[2],does not elute any proteins more than DMSO
same,inhibition of proliferation,[3],inhibited the proliferation of aggressive cell lines with similar potency to C75
same,HIV-1 p24 particle deposition into culture medium,"HIV-1; TZM-bl, 10 μM, 48 h",significantly reduce HIV-1 p24 particle deposition into culture medium
same,intracellular Gag levels,"HIV-1; TZM-bl, 10 μM, 48 h",did not reduce intracellular Gag levels
same,number of infectious HIV-1 particles,HIV-1; supernatants on fresh TZM-bl indicator cells,similarly reduced the number of infectious HIV-1 particles

# — patent US11679111B2, “Fatty acid synthase inhibitors” (priority 2016, dated 2023)
